Measurements: the supplement of paper PMC6045584
± gives the standard deviation of the averaged measurements.

Columns and labels:
VISMODEGIB = compound: CS(=O)(=O)c1ccc(C(=O)Nc2ccc(Cl)c(-c3ccccn3)c2)c(Cl)c1 [VISMODEGIB]; assay: surviving fraction relative to DMSO-only wells; higher = less growth inhibition; settings: exposure time: 5 days
Procedure, shortened: (§1)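 Tumour cell lines in log phase were plated in 384-well plates at 250–500 cells per well, then, after 24 hours, exposed continuously for five days to inhibitors at 0.5, 1, 5, 10, 50, 100, 500 and 1000 nM. Viability came from CellTiter-Glo luminescence, and surviving fraction is that signal normalised to the median of DMSO-only wells. Plates were read after 10 minutes at room temperature, and each line, screened three times, was kept only when replicate Pearson r was >0.7 and median Z' was >0.3.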

DECITABINE = compound: Nc1ncn([C@H]2C[C@H](O)[C@@H](CO)O2)c(=O)n1 [DECITABINE]; assay: as above; settings: exposure time: 5 days
Procedure, shortened: as §1

Test System | surviving fraction (VISMODEGIB; 0.5 nM) | surviving fraction (VISMODEGIB; 1 nM) | surviving fraction (VISMODEGIB; 5 nM) | surviving fraction (VISMODEGIB; 10 nM) | surviving fraction (VISMODEGIB; 50 nM) | surviving fraction (VISMODEGIB; 100 nM) | surviving fraction (VISMODEGIB; 500 nM) | surviving fraction (VISMODEGIB; 1000 nM) | surviving fraction (DECITABINE; 0.5 nM) | surviving fraction (DECITABINE; 1 nM) | surviving fraction (DECITABINE; 5 nM) | surviving fraction (DECITABINE; 10 nM) | surviving fraction (DECITABINE; 50 nM) | surviving fraction (DECITABINE; 100 nM) | surviving fraction (DECITABINE; 500 nM) | surviving fraction (DECITABINE; 1000 nM)
DU4475 BREAST | 0.969 ± 0.25 | 1.1 ± 0.28 | 1 ± 0.1 | 0.895 ± 0.29 | 1.1 ± 0.41 | 0.876 ± 0.17 | 0.899 ± 0.22 | 0.977 ± 0.32 | 0.998 ± 0.059 | 0.872 ± 0.002 | 0.774 ± 0.11 | 0.782 ± 0.074 | 0.537 ± 0.066 | 0.415 ± 0.054 | 0.194 ± 0.015 | 0.167 ± 0.0061
H23 LUNG | 0.981 ± 0.01 | 0.997 ± 0.043 | 1.05 ± 0.03 | 1.022 ± 0.0032 | 1 ± 0.069 | 1.16 ± 0.072 | 1.01 ± 0.034 | 1.06 ± 0.067 | 0.987 ± 0.028 | 0.985 ± 0.034 | 0.984 ± 0.033 | 0.899 ± 0.028 | 0.803 ± 0.036 | 0.721 ± 0.057 | 0.614 ± 0.077 | 0.562 ± 0.048
HCC78 LUNG | 1.08 ± 0.11 | 0.941 ± 0.1 | 0.982 ± 0.14 | 1.11 ± 0.14 | 1.1 ± 0.21 | 1.32 ± 0.2 | 1.04 ± 0.13 | 0.934 ± 0.19 | 0.979 ± 0.07 | 1.01 ± 0.11 | 0.899 ± 0.15 | 0.913 ± 0.12 | 0.777 ± 0.21 | 0.709 ± 0.025 | 0.213 ± 0.037 | 0.166 ± 0.036
HCC202 BREAST | 1.1 ± 0.14 | 0.842 ± 0.13 | 1.06 ± 0.2 | 1.04 ± 0.25 | 0.945 ± 0.46 | 0.785 ± 0.2 | 0.908 ± 0.14 | 0.732 ± 0.14 | 1 ± 0.21 | 1.25 ± 0.5 | 1.23 ± 0.27 | 1.06 ± 0.27 | 1.09 ± 0.26 | 1.09 ± 0.16 | 1.23 ± 0.18 | 1.009 ± 0.0014
HCC1395 BREAST | 0.717 ± 0.018 | 0.758 ± 0.12 | 0.818 ± 0.031 | 0.83 ± 0.12 | 0.681 ± 0.14 | 0.695 ± 0.055 | 0.676 ± 0.052 | 0.772 ± 0.076 | 1.19 ± 0.054 | 0.956 ± 0.1 | 1.34 ± 0.079 | 1.23 ± 0.072 | 1.26 ± 0.045 | 1.25 ± 0.086 | 1.17 ± 0.073 | 1.09 ± 0.031
HCC1806 BREAST | 0.902 ± 0.088 | 1.03 ± 0.043 | 1.18 ± 0.1 | 1.05 ± 0.083 | 0.932 ± 0.093 | 0.98 ± 0.1 | 0.896 ± 0.11 | 0.904 ± 0.12 | 0.937 ± 0.083 | 0.698 ± 0.11 | 0.531 ± 0.02 | 0.483 ± 0.031 | 0.256 ± 0.039 | 0.159 ± 0.0035 | 0.083 ± 0.012 | 0.0507 ± 0.008
HCC1954 BREAST | 0.673 ± 0.096 | 0.637 ± 0.0088 | 0.72 ± 0.015 | 0.786 ± 0.03 | 0.768 ± 0.18 | 0.6402 ± 0.0025 | 0.618 ± 0.01 | 0.546 ± 0.025 | 1.07 ± 0.19 | 1.05 ± 0.13 | 1.32 ± 0.13 | 1.32 ± 0.05 | 1.13 ± 0.13 | 1.22 ± 0.023 | 1.29 ± 0.044 | 1.08 ± 0.044
HCT15 LARGE INTESTINE | 0.966 ± 0.01 | 1.04 ± 0.052 | 0.998 ± 0.033 | 1.02 ± 0.072 | 0.931 ± 0.034 | 1.01 ± 0.048 | 0.9417 ± 0.0025 | 1.03 ± 0.033 | 1 ± 0.02 | 0.982 ± 0.056 | 0.967 ± 0.021 | 0.961 ± 0.017 | 1.05 ± 0.032 | 0.987 ± 0.032 | 0.835 ± 0.026 | 0.893 ± 0.032
HELA CERVIX | 1 ± 0.046 | 1.05 ± 0.052 | 0.9757 ± 0.0083 | 1.02 ± 0.07 | 1.0558 ± 0.001 | 1.14 ± 0.041 | 1.04 ± 0.058 | 1.15 ± 0.019 | 1.03 ± 0.043 | 0.9852 ± 0.0096 | 1.05 ± 0.043 | 1 ± 0.017 | 1.1 ± 0.03 | 1.08 ± 0.017 | 1.15 ± 0.065 | 0.944 ± 0.032
HOS BONE | 1 ± 0.013 | 1.01 ± 0.015 | 1.012 ± 0.0066 | 1.03 ± 0.026 | 0.991 ± 0.026 | 1.03 ± 0.05 | 1.01 ± 0.029 | 1.01 ± 0.079 | 1.01 ± 0.039 | 1.02 ± 0.018 | 1.03 ± 0.031 | 0.995 ± 0.011 | 1.06 ± 0.015 | 1.02 ± 0.015 | 0.8753 ± 0.0038 | 0.731 ± 0.029
HOSMNG BONE | 0.972 ± 0.12 | 0.993 ± 0.15 | 0.942 ± 0.095 | 0.906 ± 0.067 | 0.942 ± 0.15 | 0.991 ± 0.093 | 1.02 ± 0.23 | 1.05 ± 0.16 | 1.04 ± 0.043 | 1.03 ± 0.057 | 1.02 ± 0.061 | 1.02 ± 0.072 | 1.1 ± 0.036 | 1.12 ± 0.086 | 1.1 ± 0.12 | 1.11 ± 0.046
HSSYII SYNOVIAL | 0.894 ± 0.023 | 0.931 ± 0.038 | 0.904 ± 0.078 | 0.906 ± 0.037 | 0.812 ± 0.027 | 0.831 ± 0.03 | 0.795 ± 0.026 | 0.771 ± 0.014 | 0.972 ± 0.032 | 1.01 ± 0.046 | 0.933 ± 0.048 | 0.938 ± 0.073 | 0.86 ± 0.049 | 0.696 ± 0.024 | 0.48 ± 0.012 | 0.348 ± 0.036
HT1080 SOFT TISSUE | 1.021 ± 0.01 | 0.971 ± 0.028 | 1 ± 0.014 | 0.978 ± 0.03 | 0.968 ± 0.046 | 0.991 ± 0.048 | 0.962 ± 0.024 | 0.994 ± 0.06 | 1.1 ± 0.043 | 1.08 ± 0.042 | 1.07 ± 0.024 | 1.1 ± 0.058 | 0.964 ± 0.026 | 0.928 ± 0.083 | 0.665 ± 0.06 | 0.627 ± 0.016
HU09 BONE | 1.03 ± 0.079 | 0.973 ± 0.088 | 1.07 ± 0.14 | 1.08 ± 0.17 | 0.913 ± 0.04 | 0.898 ± 0.066 | 0.802 ± 0.036 | 0.886 ± 0.08 | 0.982 ± 0.083 | 0.968 ± 0.081 | 1.12 ± 0.13 | 0.997 ± 0.072 | 1.17 ± 0.13 | 1.04 ± 0.027 | 0.95 ± 0.084 | 0.847 ± 0.034
HUO3N1 BONE | 1.04 ± 0.04 | 0.976 ± 0.038 | 1.06 ± 0.061 | 1.03 ± 0.062 | 0.977 ± 0.025 | 0.962 ± 0.052 | 0.994 ± 0.03 | 0.901 ± 0.059 | 0.958 ± 0.022 | 0.99 ± 0.024 | 1.03 ± 0.056 | 1.05 ± 0.019 | 1.04 ± 0.022 | 1 ± 0.014 | 0.901 ± 0.017 | 0.879 ± 0.025
JIMT1 BREAST | 0.906 ± 0.044 | 0.89 ± 0.016 | 0.9112 ± 0.0064 | 0.948 ± 0.041 | 0.849 ± 0.035 | 0.972 ± 0.021 | 0.881 ± 0.053 | 0.952 ± 0.057 | 1.04 ± 0.021 | 0.999 ± 0.032 | 1 ± 0.018 | 0.9743 ± 0.0064 | 0.933 ± 0.038 | 0.819 ± 0.048 | 0.546 ± 0.036 | 0.471 ± 0.03
